In brackets after ≈: the same amount, converted by molar mass. Activity calls are given as the source filed them. No cut-off for these calls is given here.
Key:
[1] = Toxicity in human erythrocytes assessed as haemolysis upto 500 ug/mL; type: cell-based, Erythrocyte; settings: read-out: Activity
Staphylococcus aureus [2] = assay: Antibacterial activity against methicillin-susceptible Staphylococcus aureus ATCC 25923 after 24 hrs by two fold dilution method; type: functional; settings: ATCC 25923, 24 h
Staphylococcus aureus [3] = assay: Antibacterial activity against methicillin-resistant Staphylococcus aureus CMAH 0430 after 24 hrs by two fold dilution method; type: functional
Staphylococcus aureus [4] = assay: Antibacterial activity against methicillin-resistant Staphylococcus aureus CMAH 0504 after 24 hrs by two fold dilution method; type: functional
Staphylococcus aureus [5] = assay: Antibacterial activity against methicillin-resistant Staphylococcus aureus CMAH 0515 after 24 hrs by two fold dilution method; type: functional
Bacillus subtilis = assay: Antimicrobial activity against Bacillus subtilis after 24 hrs by two fold dilution method; type: functional
Escherichia coli [6] = assay: Antimicrobial activity against Escherichia coli ATCC 25922 after 24 hrs by two fold dilution method; type: functional; settings: ATCC 25922, 24 h
Pseudomonas aeruginosa [7] = assay: Antimicrobial activity against Pseudomonas aeruginosa ATCC 27853 after 24 hrs by two fold dilution method; type: functional; settings: ATCC 27853, 24 h
Proteus vulgaris [8] = assay: Antimicrobial activity against Proteus vulgaris CMCC(B) 49001 after 24 hrs by two fold dilution method; type: functional
Klebsiella aerogenes [9] = assay: Antibacterial activity against Enterobacter aerogenes CMCC(B) 45103 after 24 hrs by two fold dilution method; type: functional
Micrococcus luteus [10] = assay: Antimicrobial activity against Micrococcus luteus CMCC(B) 28001 after 24 hrs by two fold dilution method; type: functional
Candida albicans [11] = assay: Antifungal activity against Candida albicans ATCC 10231 after 48 to 72 hrs by broth microdilution method; type: functional
Candida albicans [12] = assay: Antifungal activity against Candida albicans CMAH 0501 after 48 to 72 hrs by broth microdilution method; type: functional
Candida albicans [13] = assay: Antifungal activity against Candida albicans CMAH 0503 after 48 to 72 hrs by broth microdilution method; type: functional
Candida albicans [14] = assay: Antifungal activity against Candida albicans CMAH 0507 after 48 to 72 hrs by broth microdilution method; type: functional
Candida albicans [15] = assay: Antifungal activity against Candida albicans CMAH 0511 after 48 to 72 hrs by broth microdilution method; type: functional
Candida albicans [16] = assay: Antifungal activity against fluconazole-resistant Candida albicans CMAH 0520 after 48 to 72 hrs by broth microdilution method; type: functional
Candida albicans [17] = assay: Antifungal activity against Candida albicans CMAH 0527 after 48 to 72 hrs by broth microdilution method; type: functional
Candida albicans [18] = assay: Antifungal activity against Candida albicans CMAH 0572 after 48 to 72 hrs by broth microdilution method; type: functional
Candida albicans [19] = assay: Antifungal activity against Candida albicans CMAM 0577 after 48 to 72 hrs by broth microdilution method; type: functional
Candida albicans [20] = assay: Antifungal activity against Candida albicans CMAM 0592 after 48 to 72 hrs by broth microdilution method; type: functional
Candida albicans [21] = assay: Antifungal activity against Candida albicans CMAM 0594 after 48 to 72 hrs by broth microdilution method; type: functional
Candida albicans [22] = assay: Antifungal activity against fluconazole-resistant Candida albicans CMAM 0597 after 48 to 72 hrs by broth microdilution method; type: functional
Cryptococcus neoformans [23] = assay: Antifungal activity against Cryptococcus neoformans ATCC 90112 after 48 to 72 hrs by broth microdilution method; type: functional
Saccharomyces cerevisiae [24] = assay: Antimicrobial activity against Saccharomyces cerevisiae after 48 to 72 hrs by broth microdilution method; type: functional
Rhodotorula glutinis = assay: Antimicrobial activity against Rhodotorula glutinis SYM 2209 after 48 to 72 hrs by broth microdilution method; type: functional
Aspergillus sp. = assay: Antifungal activity against Aspergillus sp. after 48 to 72 hrs by broth microdilution method; type: functional
[25] = Toxicity in human erythrocytes assessed as haemolysis upto 4000 ug/mL; type: cell-based, Erythrocyte; settings: read-out: Activity
[26] = Toxicity in human erythrocytes assessed as haemolysis upto 30 ug/mL; type: cell-based, Erythrocyte; settings: read-out: Activity
Staphylococcus aureus [27] = assay: Antibacterial activity against methicillin-resistant Staphylococcus aureus CMAH 0430 upto 128 ug/mL after 24 hrs by two fold dilution method; type: functional, organism-based
Staphylococcus aureus [28] = assay: Antibacterial activity against methicillin-resistant Staphylococcus aureus CMAH 0504 upto 128 ug/mL by two fold dilution method; type: functional, organism-based
Staphylococcus aureus [29] = assay: Antibacterial activity against methicillin-resistant Staphylococcus aureus CMAH 0515 upto 128 ug/mL after 24 hrs by two fold dilution method; type: functional, organism-based
Escherichia coli [30] = assay: Antimicrobial activity against Escherichia coli ATCC 25922 upto 128 ug/mL after 24 hrs by two fold dilution method; type: functional, organism-based
Pseudomonas aeruginosa [31] = assay: Antimicrobial activity against Pseudomonas aeruginosa ATCC 27853 upto 128 ug/mL after 24 hrs by two fold dilution method; type: functional, organism-based
Proteus vulgaris [32] = assay: Antimicrobial activity against Proteus vulgaris CMCC(B) 49001 upto 128 ug/mL after 24 hrs by two fold dilution method; type: functional, organism-based
Klebsiella aerogenes [33] = assay: Antibacterial activity against Enterobacter aerogenes CMCC(B) 45103 upto 128 ug/mL after 24 hrs by two fold dilution method; type: functional, organism-based
Micrococcus luteus [34] = assay: Antimicrobial activity against Micrococcus luteus CMCC(B) 28001 upto 128 ug/mL after 24 hrs by two fold dilution method; type: functional, organism-based
Candida albicans [35] = assay: Antifungal activity against Candida albicans CMAH 0572 upto 128 ug/mL after 48 to 72 hrs by broth microdilution method; type: functional, organism-based
Candida albicans [36] = assay: Antifungal activity against Candida albicans CMAM 0577 upto 128 ug/mL after 48 to 72 hrs by broth microdilution method; type: functional, organism-based
Candida albicans [37] = assay: Antifungal activity against Candida albicans CMAM 0592 upto 128 ug/mL after 48 to 72 hrs by broth microdilution method; type: functional, organism-based
Candida albicans [38] = assay: Antifungal activity against Candida albicans CMAM 0594 upto 128 ug/mL after 48 to 72 hrs by broth microdilution method; type: functional, organism-based
Candida albicans [39] = assay: Antifungal activity against fluconazole-resistant Candida albicans CMAM 0597 upto 128 ug/mL after 48 to 72 hrs by broth microdilution method; type: functional, organism-based
Cryptococcus neoformans [40] = assay: Antifungal activity against Cryptococcus neoformans ATCC 90112 upto 128 ug/mL after 48 to 72 hrs by broth microdilution method; type: functional, organism-based
Saccharomyces cerevisiae [41] = assay: Antimicrobial activity against Saccharomyces cerevisiae upto 128 ug/mL after 48 to 72 hrs by broth microdilution method; type: functional, organism-based

## COC(=O)[C@H](Cc1c[nH]c2ccccc12)NC(=O)c1ccccn1
[1]
  hemolysis: 2.52%
Staphylococcus aureus [2]
  MBC: 8 µg/mL (≈ 24.7 µM)
  MIC: 1 µg/mL (≈ 3.09 µM)
Staphylococcus aureus [3]
  MBC: 4 µg/mL (≈ 12.4 µM)
  MIC: 1 µg/mL (≈ 3.09 µM)
Staphylococcus aureus [4]
  MBC: 8 µg/mL (≈ 24.7 µM)
  MIC: 2 µg/mL (≈ 6.19 µM)
Staphylococcus aureus [5]
  MBC: 4 µg/mL (≈ 12.4 µM)
  MIC: 1 µg/mL (≈ 3.09 µM)
Bacillus subtilis
  MBC: 16 µg/mL (≈ 49.5 µM)
  MIC: 4 µg/mL (≈ 12.4 µM)
Escherichia coli [6]
  MIC: 64 µg/mL (≈ 198 µM)
Pseudomonas aeruginosa [7]
  MBC: > 128 µg/mL
  MIC: 32 µg/mL (≈ 99 µM)
Proteus vulgaris [8]
  MBC: > 128 µg/mL
  MIC: 32 µg/mL (≈ 99 µM)
Klebsiella aerogenes [9]
  MIC: 64 µg/mL (≈ 198 µM)
Micrococcus luteus [10]
  MBC: 8 µg/mL (≈ 24.7 µM)
  MIC: 4 µg/mL (≈ 12.4 µM)
Candida albicans [11]
  MFC: 4 µg/mL (≈ 12.4 µM)
  MIC: 8 µg/mL (≈ 24.7 µM)
Candida albicans [12]
  MFC: 4 µg/mL (≈ 12.4 µM)
  MIC: 16 µg/mL (≈ 49.5 µM)
Candida albicans [13]
  MFC: 32 µg/mL (≈ 99 µM)
  MIC: 8 µg/mL (≈ 24.7 µM)
Candida albicans [14]
  MFC: 16 µg/mL (≈ 49.5 µM)
  MIC: 8 µg/mL (≈ 24.7 µM)
Candida albicans [15]
  MFC: 4 µg/mL (≈ 12.4 µM)
  MIC: 2 µg/mL (≈ 6.19 µM)
Candida albicans [16]
  MFC: 32 µg/mL (≈ 99 µM)
  MIC: 8 µg/mL (≈ 24.7 µM)
Candida albicans [17]
  MFC: 32 µg/mL (≈ 99 µM)
  MIC: 16 µg/mL (≈ 49.5 µM)
Candida albicans [18]
  MFC: 64 µg/mL (≈ 198 µM)
  MIC: 32 µg/mL (≈ 99 µM)
Candida albicans [19]
  MFC: 64 µg/mL (≈ 198 µM)
  MIC: 32 µg/mL (≈ 99 µM)
Candida albicans [20]
  MFC: 16 µg/mL (≈ 49.5 µM)
  MIC: 4 µg/mL (≈ 12.4 µM)
Candida albicans [21]
  MFC: 32 µg/mL (≈ 99 µM)
  MIC: 8 µg/mL (≈ 24.7 µM)
Candida albicans [22]
  MFC: 32 µg/mL (≈ 99 µM)
  MIC: 8 µg/mL (≈ 24.7 µM)
Cryptococcus neoformans [23]
  MFC: 2 µg/mL (≈ 6.19 µM)
  MIC: 1 µg/mL (≈ 3.09 µM)
Saccharomyces cerevisiae [24]
  MFC: 8 µg/mL (≈ 24.7 µM)
  MIC: 4 µg/mL (≈ 12.4 µM)
Rhodotorula glutinis
  MFC: 2 µg/mL (≈ 6.19 µM)
  MIC: 1 µg/mL (≈ 3.09 µM)
Aspergillus sp.
  MFC50: 64 µg/mL (≈ 198 µM)
  MFC90: >128 µg/mL
Aspergillus sp.; Aspergillus sp.
  MIC: 33.6 µg/mL (≈ 104 µM)
  MIC50: 8 µg/mL (≈ 24.7 µM)
  MIC90: 64 µg/mL (≈ 198 µM)
[25]
  hemolysis: 6%
[26]
  hemolysis: 50%

## NC[C@H]1O[C@H](O[C@H]2[C@H](O)[C@@H](O[C@H]3O[C@H](CO)[C@@H](O)[C@H](N)[C@H]3O)[C@H](N)C[C@@H]2N)[C@H](O)[C@@H](O)[C@@H]1O [KANAMYCIN]
Staphylococcus aureus [2]
  MBC: 0.5 µg/mL (≈ 1.03 µM)
  MIC: 0.25 µg/mL (≈ 0.516 µM)
Staphylococcus aureus [3]
  MIC: > 64 µg/mL
Staphylococcus aureus [4]
  MIC: > 64 µg/mL
Staphylococcus aureus [5]
  MIC: > 64 µg/mL
Bacillus subtilis
  MBC: 4 µg/mL (≈ 8.26 µM)
  MIC: 4 µg/mL (≈ 8.26 µM)
Escherichia coli [6]
  MBC: 0.25 µg/mL (≈ 0.516 µM)
  MIC: 0.25 µg/mL (≈ 0.516 µM)
Pseudomonas aeruginosa [7]
  MBC: > 128 µg/mL
  MIC: 64 µg/mL (≈ 132 µM)
Proteus vulgaris [8]
  MBC: 0.5 µg/mL (≈ 1.03 µM)
  MIC: 0.25 µg/mL (≈ 0.516 µM)
Klebsiella aerogenes [9]
  MBC: 0.25 µg/mL (≈ 0.516 µM)
  MIC: 0.25 µg/mL (≈ 0.516 µM)
Micrococcus luteus [10]
  MBC: 0.25 µg/mL (≈ 0.516 µM)
  MIC: 0.25 µg/mL (≈ 0.516 µM)

## COC(=O)[C@H](Cc1c[nH]c2ccccc12)NC(=O)c1cccc(C(=O)N[C@@H](Cc2c[nH]c3ccccc23)C(=O)OC)n1
Staphylococcus aureus [2]
  MIC: 64 µg/mL (≈ 113 µM)
Staphylococcus aureus [27]
  Activity: inactive
Staphylococcus aureus [28]
  Activity: inactive
Staphylococcus aureus [29]
  Activity: inactive
Bacillus subtilis
  MBC: > 128 µg/mL
  MIC: 32 µg/mL (≈ 56.4 µM)
Escherichia coli [30]
  Activity: inactive
Pseudomonas aeruginosa [31]
  Activity: inactive
Proteus vulgaris [32]
  Activity: inactive
Klebsiella aerogenes [33]
  Activity: inactive
Micrococcus luteus [34]
  Activity: inactive
Candida albicans [11]
  MFC: 128 µg/mL (≈ 226 µM)
  MIC: 32 µg/mL (≈ 56.4 µM)
Candida albicans [12]
  MFC: 128 µg/mL (≈ 226 µM)
  MIC: 32 µg/mL (≈ 56.4 µM)
Candida albicans [13]
  MFC: 128 µg/mL (≈ 226 µM)
  MIC: 32 µg/mL (≈ 56.4 µM)
Candida albicans [14]
  MIC: 64 µg/mL (≈ 113 µM)
Candida albicans [15]
  MBC: 128 µg/mL (≈ 226 µM)
  MIC: 32 µg/mL (≈ 56.4 µM)
Candida albicans [16]
  MIC: 64 µg/mL (≈ 113 µM)
Candida albicans [17]
  MBC: 128 µg/mL (≈ 226 µM)
  MIC: 32 µg/mL (≈ 56.4 µM)
Candida albicans [35]
  Activity: inactive
Candida albicans [36]
  Activity: inactive
Candida albicans [37]
  Activity: inactive
Candida albicans [38]
  Activity: inactive
Candida albicans [39]
  Activity: inactive
Cryptococcus neoformans [40]
  Activity: inactive
Saccharomyces cerevisiae [41]
  Activity: inactive
Rhodotorula glutinis
  MFC: 128 µg/mL (≈ 226 µM)
  MIC: 32 µg/mL (≈ 56.4 µM)
Aspergillus sp.; Aspergillus sp.
  MIC50: > 128 µg/mL
  MIC90: > 128 µg/mL
